Results: patent US20250147039A1, “Compounds for complexation of rare earth elements and/or s-, p-, d- block metals, their coordination compounds, peptide conjugates, method of their preparation and use thereof” (USTAV ORGANICKE CHEMIE A BIOCHEMIE AV CR V.V.I., priority 2021, published 2025)

Experiments:
Format in all cases: physicochemical
[1] = Dissociation of chelates in aq. 1.0M HCl at 80° C. (acid decomplexation kinetic inertness) (Chart 18)
[2] = Dissociation of chelates in aq. 0.1M HCl at RT (acid decomplexation kinetic inertness) (Chart 20)
[3] = Relaxivities of Gd^III chelates, inversion recovery pulse sequence on relaxometer (0.5 T) (Chart 15); conditions: 40.0° C., 1.0 mM in aq. MOPS/NaOH buffer, pH 7.0
[4] = Dissociation of chelates in aq. 0.1M HCl at 80° C. (acid decomplexation kinetic inertness) (Chart 19)
[5] = Dissociation of chelates in aq. 6.0M HCl at 80° C. (acid decomplexation kinetic inertness) (Chart 17)

## O=C1C[N@@]2CC[N@]3CC[N@@](CC[N@](CC2)Cc2cccc(n2)-c2cnnn2Cc2cc(-c4ccccc4)cc(n2)C3)CC(=O)[O][Gd][O]1 [TD527]
[1]; 1 month
  fraction of intact chelate: 0%
[1]; 1 week
  fraction of intact chelate: 1%
[1]; 1 hour
  fraction of intact chelate: 98%
[1]; 1 day
  fraction of intact chelate: 58%
[2]; 1 month
  fraction of intact chelate: 100%
[2]; 1 week
  fraction of intact chelate: 100%
[2]; 1 hour
  fraction of intact chelate: 100%
[2]; 1 day
  fraction of intact chelate: 100%
[3]
  relaxivity: 1.48 mM⁻¹ s⁻¹
[4]; 1 month
  fraction of intact chelate: 82%
[4]; 1 week
  fraction of intact chelate: 95%
[4]; 1 hour
  fraction of intact chelate: 100%
[4]; 1 day
  fraction of intact chelate: 99%
[5]; 1 month
  fraction of intact chelate: 0%
[5]; 1 week
  fraction of intact chelate: 0%
[5]; 1 hour
  fraction of intact chelate: 2%
[5]; 1 day
  fraction of intact chelate: 0%
